Assay results: patent US11046662B2, “2-aryl-4-hydroxy-1,3-thiazole derivatives useful as TRPM8-inhibitors in treatment of neuralgia, pain, COPD and asthma” (DOMPÉ FARMACEUTICI S.P.A., priority 2014, dated 2021)

Experiments:
[1] = target: human Opioid NOP (ORL1) (Homo sapiens (Human), UniProt P41146); assay: GPCR radioligand binding assay; conditions: tested at 10 μM in duplicate
[2] = target: human Adrenergic β2 (Homo sapiens (Human), UniProt P07550); assay: GPCR radioligand binding assay; conditions: tested at 10 μM in duplicate
[3] = target: hERG channel (Homo sapiens (Human), UniProt Q12809); assay: hERG inhibition
[4] = target: human Muscarinic M3 (Homo sapiens (Human), UniProt P20309); assay: GPCR radioligand binding assay; conditions: tested at 10 μM in duplicate
[5] = target: human Opioid K (KOP) (Homo sapiens (Human), UniProt P41145); assay: GPCR radioligand binding assay; conditions: tested at 10 μM in duplicate
[6] = target: human NK1 (Homo sapiens (Human), UniProt P25103); assay: GPCR radioligand binding assay; conditions: tested at 10 μM in duplicate
[7] = tested on: mechanical allodynia; assay: Chronic constriction model of pain, mechanical allodynia (Dynamic Plantar Aesthesiometer); type: in vivo, male Sprague-Dawley rats; conditions: oral 10 mg/kg
Experimental: (§1) Neuropathic pain behavior will be induced by ligation of the sciatic nerve according to the method described by Bennett G J et al., Pain. 33: 87-107, 1988. Briefly, male Sprague-Dawley rats will be anaesthetized (100 mg/kg ketamine and 10 mg/kg xylazine i.p.) and the left sciatic nerve will be exposed at the level of the thigh by blunt dissection through the biceps femoris. Proximal to the sciatic's trifurcation, about 12 mm of nerve will be freed of adhering tissue and four ligatures will be loosely tied around it with about 1 mm spacing so that the epineural circulation will be preserved. The length of nerve thus affected was 6-8 mm long. The animals will be allowed to recover and used the day after the surgery. Sham animals represent rats operated but not ligated.
(§2) All data were presented as the mean±SEM. Analysis of data was conducted using GraphPad Prism 4.01. Statistical analysis was performed by two-way ANOVA followed by Dunnett's test for multiple comparisons, as appropriate. Statistical significance was set at p<0.05.

[8] = target: human Cannabinoid CB2 (Homo sapiens (Human), UniProt P34972); assay: GPCR radioligand binding assay; conditions: tested at 10 μM in duplicate
[9] = Pharmacokinetic profile, intravenous and oral administration; type: in vivo
Experimental: The ADME properties and the pharmacokinetic profile of compound 2 were evaluated.

[10] = target: human Cannabinoid CB1 (Homo sapiens (Human), UniProt P21554); assay: GPCR radioligand binding assay; conditions: tested at 10 μM in duplicate
[11] = target: human Opioid δ2 (DOP) (Homo sapiens (Human), UniProt P41143); assay: GPCR radioligand binding assay; conditions: tested at 10 μM in duplicate
[12] = target: CYP2D6 (Homo sapiens (Human), UniProt P10635); assay: CYP450 Inhibition; type: in vitro ADME; conditions: at 10 μM
[13] = Plasma Protein Binding, human; type: in vitro ADME
[14] = target: human TRPM8 (Homo sapiens (Human), UniProt Q7Z2W7); assay: HTS cellular-based calcium assay for human TRPM8 antagonists (FLIPR TETRA); conditions: HEK293/hTRPM8 cells, agonist Cooling Agent 10 at EC80, Ca2+ fluorescence
[15] = target: human Dopamine D3 (Homo sapiens (Human), UniProt P35462); assay: GPCR radioligand binding assay; conditions: tested at 10 μM in duplicate
[16] = target: human Muscarinic M2 (Homo sapiens (Human), UniProt P08172); assay: GPCR radioligand binding assay; conditions: tested at 10 μM in duplicate
[17] = target: human Histamine H1 (Homo sapiens (Human), UniProt P35367); assay: GPCR radioligand binding assay; conditions: tested at 10 μM in duplicate
[18] = target: human Bradykinin B1 (Homo sapiens (Human), UniProt P46663); assay: GPCR radioligand binding assay; conditions: tested at 10 μM in duplicate
[19] = physchem
[20] = target: CYP2C19 (Homo sapiens (Human), UniProt P33261); assay: CYP450 Inhibition; type: in vitro ADME; conditions: at 10 μM
[21] = target: human Serotoninergic 5-HT1A (Homo sapiens (Human), UniProt P08908); assay: GPCR radioligand binding assay; conditions: tested at 10 μM in duplicate
[22] = target: CYP1A2 (Homo sapiens (Human), UniProt P05177); assay: CYP450 Inhibition; type: in vitro ADME; conditions: at 10 μM
[23] = tested on: human cytochrome isoform; assay: Effect towards human cytochrome isoforms; type: in vitro ADME; conditions: at the maximal concentration of 10 μM
[24] = target: CYP3A4 (Homo sapiens (Human), UniProt P08684); assay: CYP450 Inhibition; type: in vitro ADME; conditions: at 10 μM
[25] = tested on: cold allodynia; assay: Chronic constriction model of pain, cold allodynia (drop of acetone); type: in vivo, male Sprague-Dawley rats; conditions: oral 10 mg/kg
Experimental: as §1, §2

[26] = target: human Adrenergic α2A (Homo sapiens (Human), UniProt P08913); assay: GPCR radioligand binding assay; conditions: tested at 10 μM in duplicate
[27] = target: human Bradykinin B2 (Homo sapiens (Human), UniProt P30411); assay: GPCR radioligand binding assay; conditions: tested at 10 μM in duplicate
[28] = Plasma Protein Binding, rat; type: in vitro ADME
[29] = CLint (rat); type: in vitro ADME
[30] = Rat Plasma Stability; type: in vitro ADME
[31] = target: human Dopamine D2S (Homo sapiens (Human), UniProt P14416); assay: GPCR radioligand binding assay; conditions: tested at 10 μM in duplicate
[32] = target: human Histamine H2 (Homo sapiens (Human), UniProt P25021); assay: GPCR radioligand binding assay; conditions: tested at 10 μM in duplicate
[33] = target: human Adrenergic α1A (Homo sapiens (Human), UniProt P35348); assay: GPCR radioligand binding assay; conditions: tested at 10 μM in duplicate
[34] = target: human Adrenergic β1 (Homo sapiens (Human), UniProt P08588); assay: GPCR radioligand binding assay; conditions: tested at 10 μM in duplicate
[35] = target: CYP2C9 (Homo sapiens (Human), UniProt P11712); assay: CYP450 Inhibition; type: in vitro ADME; conditions: at 10 μM
[36] = target: TRPV1 (Homo sapiens (Human), UniProt Q8NER1); assay: TRPV1 antagonist calcium influx assay; type: cell-based; conditions: agonist capsaicin = 100%, ruthenium red = 0
Excerpt: The signal elicited in the presence of the positive control agonist (capsaicin) was set to 100% and the signal in the presence of the antagonist (ruthenium red) was set to 0. […] The signal elicited in the presence of the positive control agonist (GSK1016790A) was set to 100% and the signal in the presence of the antagonist (ruthenium red) was set to 0. […] The signal elicited in the presence of the positive control agonist (allyl isothiocyanate, AITC) was set to 100% and the signal in the presence of the antagonist (ruthenium red) was set to 0.

[37] = target: human Opioid μ (MOP) (Homo sapiens (Human), UniProt P35372); assay: GPCR radioligand binding assay; conditions: tested at 10 μM in duplicate
[38] = day 7 and day 14, 3 hours and 5 hours post-dose
[39] = day 7 and day 14 after nerve injury, 3 hours after treatment
[40] = oral administration, PO 10 mg/kg
[41] = plasma, intravenous administration, IV 5 mg/kg
[42] = plasma, oral administration, PO 10 mg/kg

Sequence of hERG channel (Q12809 whole entry): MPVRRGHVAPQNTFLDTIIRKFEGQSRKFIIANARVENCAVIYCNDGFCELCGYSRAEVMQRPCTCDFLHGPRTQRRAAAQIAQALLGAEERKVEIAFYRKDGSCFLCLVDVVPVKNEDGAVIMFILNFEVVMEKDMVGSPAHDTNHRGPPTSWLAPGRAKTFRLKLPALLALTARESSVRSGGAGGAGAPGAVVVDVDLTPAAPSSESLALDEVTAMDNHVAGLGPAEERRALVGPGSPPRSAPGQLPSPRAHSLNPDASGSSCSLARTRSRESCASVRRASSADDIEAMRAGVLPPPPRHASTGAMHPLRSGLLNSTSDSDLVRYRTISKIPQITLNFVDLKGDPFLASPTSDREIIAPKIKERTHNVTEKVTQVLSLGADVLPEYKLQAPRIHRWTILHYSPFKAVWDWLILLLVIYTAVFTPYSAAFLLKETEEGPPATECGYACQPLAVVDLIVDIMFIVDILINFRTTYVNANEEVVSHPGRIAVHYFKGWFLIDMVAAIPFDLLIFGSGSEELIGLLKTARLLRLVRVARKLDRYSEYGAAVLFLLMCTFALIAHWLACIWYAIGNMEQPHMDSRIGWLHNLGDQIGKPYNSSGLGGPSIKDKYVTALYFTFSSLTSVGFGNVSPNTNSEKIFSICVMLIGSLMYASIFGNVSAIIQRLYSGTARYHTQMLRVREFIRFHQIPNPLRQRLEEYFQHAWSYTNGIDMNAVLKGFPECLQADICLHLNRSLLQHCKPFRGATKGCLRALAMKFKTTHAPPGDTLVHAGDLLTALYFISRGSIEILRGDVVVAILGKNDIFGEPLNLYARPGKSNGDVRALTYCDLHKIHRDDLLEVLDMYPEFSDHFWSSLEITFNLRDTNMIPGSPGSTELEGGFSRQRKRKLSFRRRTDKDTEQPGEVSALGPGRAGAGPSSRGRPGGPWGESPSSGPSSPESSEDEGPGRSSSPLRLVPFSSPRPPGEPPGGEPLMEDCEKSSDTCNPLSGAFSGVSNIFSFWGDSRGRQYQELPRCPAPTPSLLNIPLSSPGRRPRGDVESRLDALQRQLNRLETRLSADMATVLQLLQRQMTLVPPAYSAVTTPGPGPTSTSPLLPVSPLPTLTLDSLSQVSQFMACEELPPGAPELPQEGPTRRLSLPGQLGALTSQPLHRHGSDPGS
Sequence of human Opioid δ2 (DOP) (P41143 whole entry): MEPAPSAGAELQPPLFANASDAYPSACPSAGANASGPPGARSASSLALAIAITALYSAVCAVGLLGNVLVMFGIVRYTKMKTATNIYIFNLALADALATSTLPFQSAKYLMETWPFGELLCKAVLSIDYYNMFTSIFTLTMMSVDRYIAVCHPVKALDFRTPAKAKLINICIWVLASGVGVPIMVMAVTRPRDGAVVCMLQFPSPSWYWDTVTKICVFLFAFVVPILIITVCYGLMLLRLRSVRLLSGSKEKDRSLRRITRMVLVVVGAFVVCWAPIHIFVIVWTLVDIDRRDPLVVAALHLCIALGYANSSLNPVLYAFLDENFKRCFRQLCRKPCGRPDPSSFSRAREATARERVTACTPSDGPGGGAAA
Sequence of CYP1A2 (P05177 whole entry, canonical isoform): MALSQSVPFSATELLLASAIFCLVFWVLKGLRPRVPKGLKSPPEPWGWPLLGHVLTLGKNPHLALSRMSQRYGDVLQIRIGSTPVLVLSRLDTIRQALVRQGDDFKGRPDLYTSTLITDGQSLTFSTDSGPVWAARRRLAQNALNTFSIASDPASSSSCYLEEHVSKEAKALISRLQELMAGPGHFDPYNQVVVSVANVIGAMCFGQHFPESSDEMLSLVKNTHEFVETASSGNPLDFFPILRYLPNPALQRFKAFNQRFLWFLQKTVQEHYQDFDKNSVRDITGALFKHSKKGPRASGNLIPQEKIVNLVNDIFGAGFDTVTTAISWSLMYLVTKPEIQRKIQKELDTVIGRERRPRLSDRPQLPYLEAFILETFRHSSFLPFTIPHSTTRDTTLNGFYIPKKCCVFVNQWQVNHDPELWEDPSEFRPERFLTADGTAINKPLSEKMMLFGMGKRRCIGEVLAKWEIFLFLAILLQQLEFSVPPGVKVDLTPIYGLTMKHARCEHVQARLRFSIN
Sequence of CYP3A4 (P08684 whole entry): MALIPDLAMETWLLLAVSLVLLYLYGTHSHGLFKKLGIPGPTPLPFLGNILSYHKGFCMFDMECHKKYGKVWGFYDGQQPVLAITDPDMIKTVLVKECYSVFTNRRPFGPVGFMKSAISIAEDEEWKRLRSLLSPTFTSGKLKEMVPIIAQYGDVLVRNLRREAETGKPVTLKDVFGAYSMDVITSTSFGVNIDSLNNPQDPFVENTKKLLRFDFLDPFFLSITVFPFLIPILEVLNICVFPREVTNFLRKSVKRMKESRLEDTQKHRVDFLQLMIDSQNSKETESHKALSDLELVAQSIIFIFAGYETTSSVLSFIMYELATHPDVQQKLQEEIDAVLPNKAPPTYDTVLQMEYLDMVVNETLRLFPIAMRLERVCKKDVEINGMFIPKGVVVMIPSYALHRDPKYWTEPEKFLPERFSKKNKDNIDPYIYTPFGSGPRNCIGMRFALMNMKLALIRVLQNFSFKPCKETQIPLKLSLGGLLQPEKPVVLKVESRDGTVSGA
Sequence of human Adrenergic α2A (P08913 whole entry): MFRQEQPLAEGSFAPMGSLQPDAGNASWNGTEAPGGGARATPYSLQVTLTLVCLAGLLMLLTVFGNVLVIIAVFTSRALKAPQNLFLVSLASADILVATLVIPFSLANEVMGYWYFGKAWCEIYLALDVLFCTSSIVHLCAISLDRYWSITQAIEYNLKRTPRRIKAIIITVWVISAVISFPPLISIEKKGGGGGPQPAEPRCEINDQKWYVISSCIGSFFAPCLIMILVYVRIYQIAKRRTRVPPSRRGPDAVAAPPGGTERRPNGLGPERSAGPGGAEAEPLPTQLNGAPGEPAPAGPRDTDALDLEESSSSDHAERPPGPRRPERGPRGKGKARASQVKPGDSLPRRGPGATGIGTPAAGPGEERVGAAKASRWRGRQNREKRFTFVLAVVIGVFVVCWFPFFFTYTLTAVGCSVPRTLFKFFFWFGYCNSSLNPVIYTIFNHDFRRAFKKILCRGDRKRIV
Sequence of CYP2C19 (P33261 whole entry): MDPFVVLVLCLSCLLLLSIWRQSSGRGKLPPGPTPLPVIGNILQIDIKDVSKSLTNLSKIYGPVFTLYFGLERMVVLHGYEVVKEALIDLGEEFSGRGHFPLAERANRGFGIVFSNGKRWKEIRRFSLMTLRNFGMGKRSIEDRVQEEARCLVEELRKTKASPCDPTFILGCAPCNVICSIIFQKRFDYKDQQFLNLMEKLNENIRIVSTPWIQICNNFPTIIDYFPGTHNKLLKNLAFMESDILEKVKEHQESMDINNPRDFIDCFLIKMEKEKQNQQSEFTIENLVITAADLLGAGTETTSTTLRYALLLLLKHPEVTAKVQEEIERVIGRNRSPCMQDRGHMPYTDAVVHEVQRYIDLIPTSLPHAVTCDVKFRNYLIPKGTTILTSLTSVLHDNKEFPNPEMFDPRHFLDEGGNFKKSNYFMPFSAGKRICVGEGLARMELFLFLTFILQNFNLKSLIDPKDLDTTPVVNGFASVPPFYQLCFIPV
Sequence of human Serotoninergic 5-HT1A (P08908 whole entry): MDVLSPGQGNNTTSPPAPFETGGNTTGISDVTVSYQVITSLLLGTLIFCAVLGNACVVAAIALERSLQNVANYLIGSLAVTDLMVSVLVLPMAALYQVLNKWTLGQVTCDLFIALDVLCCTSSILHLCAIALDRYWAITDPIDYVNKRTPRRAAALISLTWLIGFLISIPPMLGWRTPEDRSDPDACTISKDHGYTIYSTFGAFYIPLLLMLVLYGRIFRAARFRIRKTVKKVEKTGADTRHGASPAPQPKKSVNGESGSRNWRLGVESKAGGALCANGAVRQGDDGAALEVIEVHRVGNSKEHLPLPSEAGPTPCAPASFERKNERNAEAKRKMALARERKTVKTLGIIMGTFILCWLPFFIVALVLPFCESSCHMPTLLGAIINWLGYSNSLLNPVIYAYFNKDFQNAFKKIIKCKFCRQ
Sequence of human Opioid NOP (ORL1) (P41146 whole entry): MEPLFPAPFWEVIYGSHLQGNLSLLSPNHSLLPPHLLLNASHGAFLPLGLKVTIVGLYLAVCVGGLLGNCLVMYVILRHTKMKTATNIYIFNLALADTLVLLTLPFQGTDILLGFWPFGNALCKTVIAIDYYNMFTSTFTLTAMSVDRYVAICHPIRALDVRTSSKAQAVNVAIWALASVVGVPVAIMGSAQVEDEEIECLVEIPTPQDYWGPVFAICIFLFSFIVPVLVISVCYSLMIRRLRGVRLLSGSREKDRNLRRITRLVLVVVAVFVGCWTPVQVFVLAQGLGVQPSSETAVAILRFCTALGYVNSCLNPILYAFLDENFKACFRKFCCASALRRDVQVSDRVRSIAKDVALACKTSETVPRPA
Sequence of human Adrenergic β1 (P08588 whole entry): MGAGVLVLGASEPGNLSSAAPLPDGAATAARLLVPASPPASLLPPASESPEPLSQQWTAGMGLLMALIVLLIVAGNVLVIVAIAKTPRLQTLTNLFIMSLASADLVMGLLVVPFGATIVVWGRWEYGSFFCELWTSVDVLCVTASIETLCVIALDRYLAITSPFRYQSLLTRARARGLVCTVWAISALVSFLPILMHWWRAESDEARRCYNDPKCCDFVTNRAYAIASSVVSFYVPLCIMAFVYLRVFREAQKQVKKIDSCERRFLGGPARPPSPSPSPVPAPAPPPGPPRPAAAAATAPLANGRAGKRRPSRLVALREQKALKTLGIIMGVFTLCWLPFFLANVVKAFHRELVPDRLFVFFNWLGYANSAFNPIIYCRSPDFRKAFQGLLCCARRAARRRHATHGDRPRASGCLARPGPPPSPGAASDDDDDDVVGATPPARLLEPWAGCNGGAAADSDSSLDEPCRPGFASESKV

For `CCC(=O)c1sc(-c2cccc(F)c2)nc1[O-].[Na+]` [Compound 2, sodium 2-(3-fluorophenyl)-5-propanoyl-1,3-thiazol-4-olate], the “activity towards human Opioid NOP (ORL1)” value [1] was “inactive”, the “activity towards human Adrenergic β2” value [2] was “inactive” and the IC50 [3] was greater than 1000 µM. For the same molecule, the “effect towards hERG channel” value [3] was “none effect”, the “activity towards human Muscarinic M3” value [4] was “inactive” and the “activity towards human Opioid K (KOP)” value [5] was “inactive”. The “activity towards human NK1” value [6] was “inactive”, the “effect on mechanical allodynia” value [7, 38] was “significantly attenuated” and the “maximal activity, inhibition of mechanical allodynia” value [7, 39] was “about 50%”. For the same molecule, the “activity towards human Cannabinoid CB2” value [8] was “inactive”, the “Vds” value ([9]; intravenous administration, IV 5 mg/kg) was 1.78 L/kg and the “CL” value [9, 40] was 6.41 mL/min/kg. The “t1/2” value [9, 40] was 2.94 h, the clearance [9, 41] was 6.81 mL/min/kg and the half-life [9, 41] was 3.01 h. It also gave an AUC [9, 42] of 26100 ng·h/mL, a Cmax [9, 42] of 10300 ng/mL and a Tmax [9, 42] of 0.25 h. For the same molecule, the half-life [9, 42] was 2.94 h, the bioavailability ([9]; plasma, oral administration, PO 10 mg/kg vs IV 5 mg/kg) was 100% and the “activity towards human Cannabinoid CB1” value [10] was “inactive”. For the same molecule, the “activity towards human Opioid δ2 (DOP)” value [11] was “inactive”, the IC50 [12] was greater than 30 µM and the fraction unbound [13] was 0.0129. For the same molecule, the IC50 [14] was 0.028 µM, the “activity towards human Dopamine D3” value [15] was “inactive” and the “activity towards human Muscarinic M2” value [16] was “inactive”. For the same molecule, the “activity towards human Histamine H1” value [17] was “inactive”, the “activity towards human Bradykinin B1” value [18] was “inactive” and the pKa [19] was 4.18. The IC50 [20] was greater than 30 µM, the “activity towards human Serotoninergic 5-HT1A” value [21] was “inactive” and the IC50 [22] was greater than 30 µM. For the same molecule, the “effect towards any human cytochrome isoform” value [23] was “no effect”, the IC50 [24] was greater than 30 µM and the “effect on cold allodynia” value [25, 38] was “significantly attenuated”. For the same molecule, the “maximal activity, inhibition of cold allodynia” value [25, 39] was “about 50%”, the “activity towards human Adrenergic α2A” value [26] was “inactive” and the “activity towards human Bradykinin B2” value [27] was “inactive”. The fraction unbound [28] was 0.025, the microsomal CLint [29] was 29.4 µL/min/mg and the “Rat Plasma Stability (% remaining)” value ([30]; at 30 min) was 98.2%. The “Rat Plasma Stability (% remaining)” value ([30]; at 60 min) was 80.3%, the “activity towards human Dopamine D2S” value [31] was “inactive” and the “activity towards human Histamine H2” value [32] was “inactive”. For the same molecule, the “activity towards human Adrenergic α1A” value [33] was “inactive”, the “activity towards human Adrenergic β1” value [34] was “inactive” and the IC50 [35] was greater than 30 µM. For the same molecule, the IC50 [36] was greater than 10 µM and the “activity towards human Opioid μ (MOP)” value [37] was “inactive”.
